In patent US10308667B2, “Oxadiazolopyridine derivatives for use as ghrelin O-acyl transferase (GOAT) inhibitors” (Boehringer Ingelheim International GmbH, priority 2016, dated 2019):
pIC50: −log10 of the molar value.

Target: human GOAT (Homo sapiens (Human), UniProt Q96T53)
Assay: Determination of hGOAT Activity in HEK293 Cells after Incubation with Test Compound
Type: cell-based
Conditions: HEK293 cells stably transfected with preproghrelin and human GOAT; octanoate-BSA 100 μM; acyl-ghrelin in medium by ELISA after 5 hours
Experimental: Determination of hGOAT Activity in HEK293 Cells after Incubation with Test Compound
HEK293 cells stably transfected with two expression vectors, one coding for preproghrelin cDNA and a second for the expression of human GOATcDNA are used as a cellular model. After feeding the cells with octanoic acid for 5 hours, acyl-ghrelin is measured in cell culture medium by an ELISA procedure.
Cellline: Hek293 hGOAT/PPGhrl Clone #1B8Sodium octanoate, Sigma, Cat.-No. C5038
BD Poly-D-Lysin 384-well Plates, black-clear polystyrene BD Bioscience Cat.-No. […] ELISA human acylated Ghrelin Kit purchased from Bertin Pharman (detailed composition of buffers e.g. wash-puffer, ELISA buffer not known)
Cells are plated with a density of 5000 cells/well in 384-well poly-D-lysin plates and incubated for 1 day at 37° C., 5% CO2 in DMEM medium, 10% FCS, 1×NEAA, Puromycin (0.5 μg/ml) and G418 (1 mg/ml). Then the medium is changed to a identical medium without FCS and containing Octanoate-BSA (final concentration 100 μM each) and compound in DMSO (final DMSO concentration 0.3%). After incubation for 5 hours acylghrelin in the medium is measured by ELISA
The medium sample is diluted 1:25 in Elisa buffer, A 25 ul aliquot is transferred to a 384-well ELISA plate previously washed 4 times with 100 μL wash buffer, and 25 μl tracer-solution is added. After incubation overnight (˜20 h) at 4° C. temperature the plate is washed 4 times with 100 μl wash-buffer per well. Finally 50 μl Ellman's reagent is added to each well and the plate is incubated in the dark for 20 minutes. The absorbance is measured at 405 nm in an Envision multilabel reader and the amount of acylated ghrelin is calculated according to a acylated ghrelin standard curve provided in the same plate.
The analysis of the data is performed by calculation of the percentage of acyl-ghrelin produced in the presence of test compound compared to the amount of acyl-ghrelin produced in the vehicle control samples. An inhibitor of the GOAT enzyme will give values between 100% CTL (no inhibition) and 0% CTL (complete inhibition). IC50 values are calculated with Assay Explorer or other suited software based on curve fitting of results of 8 different compound concentrations.

Chain of human GOAT (Q96T53 whole entry): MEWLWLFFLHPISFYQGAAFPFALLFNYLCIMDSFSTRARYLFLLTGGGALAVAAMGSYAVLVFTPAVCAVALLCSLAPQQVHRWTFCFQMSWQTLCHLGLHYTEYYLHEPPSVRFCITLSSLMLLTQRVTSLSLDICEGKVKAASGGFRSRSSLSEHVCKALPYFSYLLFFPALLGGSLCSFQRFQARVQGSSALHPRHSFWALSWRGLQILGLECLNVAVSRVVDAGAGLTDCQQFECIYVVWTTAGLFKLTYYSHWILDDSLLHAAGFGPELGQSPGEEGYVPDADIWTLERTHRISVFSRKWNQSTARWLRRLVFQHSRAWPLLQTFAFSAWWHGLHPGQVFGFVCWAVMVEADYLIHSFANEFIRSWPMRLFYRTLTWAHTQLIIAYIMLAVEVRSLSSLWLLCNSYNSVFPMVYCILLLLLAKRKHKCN

Structure (SMILES)	pIC50
Cc1nc2nonc2c(N)c1Cc1ncc(C(F)(F)F)c(N)n1 [Example 46, 2-(7-amino-5-methyl-[1,2,5]oxadiazolo[3,4-b]pyridin-6-ylmethyl)-5-(trifluoromethyl)pyrimidin-4-amine]	9.66
Cc1nc2nonc2c(N)c1Cc1ccc(Cl)c(C#N)n1 [Example 47, 6-(7-amino-5-methyl-[1,2,5]oxadiazolo[3,4-b]pyridin-6-ylmethyl)-3-chloropyridine-2-carbonitrile]	8.62
Cc1nc2nonc2c(N)c1Cc1ccc(C(F)(F)F)c(C#N)n1 [Example 48, 6-(7-Amino-5-methyl-[1,2,5]oxadiazolo[3,4-b]pyridin-6-ylmethyl)-3-trifluoromethyl-pyridine-2-carbonitrile]	9.74
Cc1nc2nonc2c(N)c1Cc1ccc(C(F)(F)F)c(C(=O)C(C)C)n1 [Example 49, 1-[6-(7-Amino-5-methyl-[1,2,5]oxadiazolo[3,4-b]pyridin-6-ylmethyl)-3-trifluoromethyl-pyridin-2-yl]-2-methyl-propan-1-one]	9.82
Cc1nc2nonc2c(N)c1Cc1ncc(C(F)(F)F)c(Cl)n1 [Example 50, 6-[4-chloro-5-(trifluoromethyl)pyrimidin-2-yl]methyl-5-methyl-[1,2,5]oxadiazolo[3,4-b]pyridin-7-amine]	8.60
Cc1nc2nonc2c(N)c1Cc1nccc(C#N)n1 [Example 51, 2-(7-amino-5-methyl-[1,2,5]oxadiazolo[3,4-b]pyridin-6-ylmethyl)pyrimidine-4-carbonitrile]	7.70
Cc1nc2nonc2c(N)c1Cc1cccc(C(F)(F)F)n1 [Example 52, 5-Methyl-6-(6-trifluoromethyl-pyridin-2-ylmethyl)-[1,2,5]oxadiazolo[3,4-b]pyridin-7-ylamine]	9.32
Cc1cccc(Cc2c(C)nc3nonc3c2N)n1 [Example 53, 5-Methyl-6-(6-methyl-pyridin-2-ylmethyl)-[1,2,5]oxadiazolo[3,4-b]pyridin-7-ylamine]	8.59
CNC(=O)c1cccc(Cc2c(C)nc3nonc3c2N)n1 [Example 54, 6-(7-Amino-5-methyl-[1,2,5]oxadiazolo[3,4-b]pyridin-6-ylmethyl)-pyridine-2-carboxylic acid methylamide]	9.62
Cc1nc2nonc2c(N)c1Cc1cccc(C(=O)N(C)C)n1 [Example 55, 6-(7-Amino-5-methyl-[1,2,5]oxadiazolo[3,4-b]pyridin-6-ylmethyl)-pyridine-2-carboxylic Acid Dimethylamide]	8.41
Cc1nc2nonc2c(N)c1Cc1cccc(C(N)=O)n1 [Example 56, 6-(7-Amino-5-methyl-[1,2,5]oxadiazolo[3,4-b]pyridin-6-ylmethyl)-pyridine-2-carboxylic Acid Amide]	9.14
Cc1nc2nonc2c(N)c1Cc1cccc(-c2ccco2)n1 [Example 57, 6-(6-Furan-2-yl-pyridin-2-ylmethyl)-5-methyl-[1,2,5]oxadiazolo[3,4-b]pyridin-7-ylamine]	10.00
Cc1nc2nonc2c(N)c1Cc1ccccn1 [Example 58, 5-methyl-6-[(pyridin-2-yl)methyl]-[1,2,5]oxadiazolo[3,4-b]pyridin-7-amine]	8.55
Cc1nc2nonc2c(N)c1Cc1cccc(-c2cncn2C)n1 [Example 59, 5-Methyl-6-[6-(3-methyl-3H-imidazol-4-yl)-pyridin-2-ylmethyl]-[1,2,5]oxadiazolo[3,4-b]pyridin-7-ylamine]	9.47
Cc1nc2nonc2c(N)c1Cc1cccc(-c2c(C)noc2C)n1 [Example 60, 6-[6-(3,5-Dimethyl-isoxazol-4-yl)-pyridin-2-ylmethyl]-5-methyl-[1,2,5]oxadiazolo[3,4-b]pyridin-7-ylamine]	9.32
Cc1nc2nonc2c(N)c1Cc1cccc(-c2cn(C)nc2C(F)(F)F)n1 [Example 61, 5-Methyl-6-[6-(1-methyl-3-trifluoromethyl-1H-pyrazol-4-yl)-pyridin-2-ylmethyl]-[1,2,5]oxadiazolo[3,4-b]pyridin-7-ylamine]	9.54
Cc1nc2nonc2c(N)c1Cc1cccc(-c2c[nH]nc2C(F)(F)F)n1 [Example 62, 5-Methyl-6-[6-(3-trifluoromethyl-1H-pyrazol-4-yl)-pyridin-2-ylmethyl]-[1,2,5]oxadiazolo[3,4-b]pyridin-7-ylamine]	9.68
Cc1nc2nonc2c(N)c1Cc1cccc(C(C)(C)C#N)n1 [Example 63, 2-[6-(7-Amino-5-methyl-[1,2,5]oxadiazolo[3,4-b]pyridin-6-ylmethyl)-pyridin-2-yl]-2-methyl-propionitrile]	9.32

Now from value to compound:

pIC50	Structure (SMILES)
10.00	Cc1nc2nonc2c(N)c1Cc1cccc(C2(C#N)CCCC2)n1 [Example 64, 1-[6-(7-Amino-5-methyl-[1,2,5]oxadiazolo[3,4-b]pyridin-6-ylmethyl)-pyridin-2-yl]-cyclopentanecarbonitrile]
9.54	Cc1nc2nonc2c(N)c1Cc1ccc(-c2cnn3c2CCC3)c(N)n1 [Example 65, 6-[6-Amino-5-(5,6-dihydro-4H-pyrrolo[1,2-b]pyrazol-3-yl)-pyridin-2-ylmethyl]-5-methyl-[1,2,5]oxadiazolo[3,4-b]pyridin-7-ylamine]
9.85	Cc1nc2nonc2c(N)c1Cc1ccc(-c2c(C)noc2C)c(N)n1 [Example 66, 6-[6-Amino-5-(3,5-dimethyl-isoxazol-4-yl)-pyridin-2-ylmethyl]-5-methyl-[1,2,5]oxadiazolo[3,4-b]pyridin-7-ylamine]
10.30	Cc1nc2nonc2c(N)c1Cc1ccc(-c2cncs2)c(N)n1 [Example 67, 6-(6-Amino-5-thiazol-5-yl-pyridin-2-ylmethyl)-5-methyl-[1,2,5]oxadiazolo[3,4-b]pyridin-7-ylamine]
9.96	Cc1cnn(C)c1-c1ccc(Cc2c(C)nc3nonc3c2N)nc1N [Example 68, 6-[6-Amino-5-(2,4-dimethyl-2H-pyrazol-3-yl)-pyridin-2-ylmethyl]-5-methyl-[1,2,5]oxadiazolo[3,4-b]pyridin-7-ylamine]
9.24	Cc1nc2nonc2c(N)c1Cc1ccc(-c2cnccn2)c(N)n1 [Example 69, 6-(6-Amino-5-pyrazin-2-yl-pyridin-2-ylmethyl)-5-methyl-[1,2,5]oxadiazolo[3,4-b]pyridin-7-ylamine]
10.09	Cc1nc2nonc2c(N)c1Cc1ccc(OC(F)F)c(C#N)n1 [Example 70, 6-(7-Amino-5-methyl-[1,2,5]oxadiazolo[3,4-b]pyridin-6-ylmethyl)-3-difluoromethoxy-pyridine-2-carbonitrile]
9.66	Cc1nc2nonc2c(N)c1Cc1ccc(Br)c(C#N)n1 [Example 71, 6-(7-Amino-5-methyl-[1,2,5]oxadiazolo[3,4-b]pyridin-6-ylmethyl)-3-bromopyridine-2-carbonitrile]
8.96	Cc1nc2nonc2c(N)c1Cc1ccc(C#N)c(F)n1 [Example 72, 6-(7-Amino-5-methyl-[1,2,5]oxadiazolo[3,4-b]pyridin-6-ylmethyl)-2-fluoro-nicotinonitrile]
9.48	Cc1nc2nonc2c(N)c1Cc1ccc(C#N)c(OC(F)F)n1 [Example 73, 6-(7-Amino-5-methyl-[1,2,5]oxadiazolo[3,4-b]pyridin-6-ylmethyl)-2-difluoromethoxy-nicotinonitrile]
8.70	Cc1nc2nonc2c(N)c1Cc1cc(C(F)(F)F)c(C#N)cn1 [Example 74, 6-(7-Amino-5-methyl-[1,2,5]oxadiazolo[3,4-b]pyridin-6-ylmethyl)-4-trifluoromethyl-nicotinonitrile]
8.57	Cc1nc2nonc2c(N)c1Cc1ncc(C(F)(F)F)c(C#N)n1 [Example 75, 2-(7-amino-5-methyl-[1,2,5]oxadiazolo[3,4-b]pyridin-6-ylmethyl)-5-(trifluoromethyl)pyrimidine-4-carbonitrile]
7.85	Cc1nc2nonc2c(N)c1Cc1cc(C#N)c(C#N)cn1 [Example 76, 6-(7-amino-5-methyl-[1,2,5]oxadiazolo[3,4-b]pyridin-6-ylmethyl)pyridine-3,4-dicarbonitrile]
8.42	Cc1nc2nonc2c(N)c1Cc1ncc(C#N)cn1 [Example 77, 2-(7-amino-5-methyl-[1,2,5]oxadiazolo[3,4-b]pyridin-6-ylmethyl)pyrimidine-5-carbonitrile]
9.44	Cc1nc2nonc2c(N)c1Cc1ncc(C#N)c(C(F)(F)F)n1 [Example 78, 2-(7-amino-5-methyl-[1,2,5]oxadiazolo[3,4-b]pyridin-6-ylmethyl)-4-(trifluoromethyl)pyrimidine-5-carbonitril]
9.23	Cc1nc2nonc2c(N)c1Cc1ncc(C#N)c(C(F)F)n1 [Example 79, 2-(7-amino-5-methyl-[1,2,5]oxadiazolo[3,4-b]pyridin-6-ylmethyl)-4-(difluoromethyl)pyrimidine-5-carbonitrile]
